# Data from PubChem BioAssay (NCI).
#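 All cell lines were grown in 96-well plates and treated with compound for 48 hours. GI50: concentration for 50% inhibition of growth. The concentration for full growth arrest is given as TGI.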
# Tests used:
# Experiment in all cases: NCI anticancer screen, dose series, 48 h
# SNB-75 CNS = test system: SNB-75 CNS
# NCI-H23 lung = test system: NCI-H23 lung
# CAKI-1 renal = test system: CAKI-1 renal
# 786-0 renal = test system: 786-0 renal
# U251 CNS = test system: U251 CNS
# OVCAR-3 ovarian = test system: OVCAR-3 ovarian
# HCC-2998 colon = test system: HCC-2998 colon
# SR leukemia = test system: SR leukemia
# RPMI-8226 leukemia = test system: RPMI-8226 leukemia
# SK-MEL-2 melanoma = test system: SK-MEL-2 melanoma
# TK-10 renal = test system: TK-10 renal
# SNB-19 CNS = test system: SNB-19 CNS
# HCT-116 colon = test system: HCT-116 colon
# EKVX NSCLC = test system: EKVX NSCLC
# SN12C renal = test system: SN12C renal
# HT29 colon = test system: HT29 colon
# UO-31 renal = test system: UO-31 renal
# A549 NSCLC = test system: A549 NSCLC
# OVCAR-5 ovarian = test system: OVCAR-5 ovarian
# MCF7 breast = test system: MCF7 breast
# COLO 205 colon = test system: COLO 205 colon
# T-47D breast = test system: T-47D breast
# CCRF-CEM leukemia = test system: CCRF-CEM leukemia
# OVCAR-8 ovarian = test system: OVCAR-8 ovarian
# SF-268 CNS = test system: SF-268 CNS
# DU-145 prostate = test system: DU-145 prostate
# HOP-92 NSCLC = test system: HOP-92 NSCLC
# KM12 colon = test system: KM12 colon
# UACC-257 melanoma = test system: UACC-257 melanoma
# LOX IMVI melanoma = test system: LOX IMVI melanoma
# MDA-MB-231 breast = test system: MDA-MB-231 breast
# UACC-62 melanoma = test system: UACC-62 melanoma
# HL-60(TB) leukemia = test system: HL-60(TB) leukemia
# SK-OV-3 ovarian = test system: SK-OV-3 ovarian
# OVCAR-4 ovarian = test system: OVCAR-4 ovarian
# NCI-H226 lung = test system: NCI-H226 lung
# NCI/ADR-RES ovarian = test system: NCI/ADR-RES ovarian
# SF-539 CNS = test system: SF-539 CNS
# IGROV1 ovarian = test system: IGROV1 ovarian
# MALME-3M melanoma = test system: MALME-3M melanoma
# A498 renal = test system: A498 renal
# HOP-62 NSCLC = test system: HOP-62 NSCLC
# NCI-H522 lung = test system: NCI-H522 lung
# BT-549 breast = test system: BT-549 breast
# MOLT-4 leukemia = test system: MOLT-4 leukemia
# ACHN renal = test system: ACHN renal
# SF-295 CNS = test system: SF-295 CNS
# NCI-H460 lung = test system: NCI-H460 lung
# MDA-MB-435 = test system: MDA-MB-435
# SK-MEL-5 melanoma = test system: SK-MEL-5 melanoma
# HCT-15 colon = test system: HCT-15 colon
compound,measurement,setting,value
COC12C=CC(CC1)C(C)(C)C2O (stereo not given),TGI,SNB-75 CNS,> 100 µM
COc1cc(C(=O)/C=C/c2c(-c3cccs3)nc3ccccn23)cc(OC)c1OC,GI50,NCI-H23 lung,2.2 µM
same,TGI,NCI-H23 lung,5.33 µM
same,GI50,CAKI-1 renal,2.31 µM
same,TGI,CAKI-1 renal,8.14 µM
same,GI50,786-0 renal,2.31 µM
same,TGI,786-0 renal,7.07 µM
same,GI50,U251 CNS,1.66 µM
same,TGI,U251 CNS,6.03 µM
same,GI50,OVCAR-3 ovarian,2.44 µM
same,TGI,OVCAR-3 ovarian,5.36 µM
same,GI50,HCC-2998 colon,1.96 µM
same,TGI,HCC-2998 colon,3.37 µM
same,GI50,SR leukemia,1.34 µM
same,TGI,SR leukemia,> 100 µM
same,GI50,RPMI-8226 leukemia,1.23 µM
same,TGI,RPMI-8226 leukemia,3.72 µM
same,GI50,SK-MEL-2 melanoma,2.27 µM
same,TGI,SK-MEL-2 melanoma,4.35 µM
same,GI50,TK-10 renal,3.78 µM
same,TGI,TK-10 renal,25.4 µM
same,GI50,SNB-19 CNS,2.1 µM
same,TGI,SNB-19 CNS,5.56 µM
same,GI50,HCT-116 colon,1.63 µM
same,TGI,HCT-116 colon,3.08 µM
same,GI50,EKVX NSCLC,3.12 µM
same,TGI,EKVX NSCLC,> 100 µM
same,GI50,SN12C renal,2.44 µM
same,TGI,SN12C renal,27 µM
same,GI50,HT29 colon,2.09 µM
same,TGI,HT29 colon,4.19 µM
same,GI50,UO-31 renal,1.07 µM
same,TGI,UO-31 renal,3.17 µM
same,GI50,A549 NSCLC,2.04 µM
same,TGI,A549 NSCLC,5.89 µM
same,GI50,OVCAR-5 ovarian,2.64 µM
same,TGI,OVCAR-5 ovarian,5.82 µM
same,GI50,MCF7 breast,1.12 µM
same,TGI,MCF7 breast,15.4 µM
same,GI50,COLO 205 colon,1.77 µM
same,TGI,COLO 205 colon,3.2 µM
same,GI50,T-47D breast,1.72 µM
same,TGI,T-47D breast,6.79 µM
same,GI50,CCRF-CEM leukemia,1.66 µM
same,TGI,CCRF-CEM leukemia,6.85 µM
same,GI50,OVCAR-8 ovarian,1.68 µM
same,TGI,OVCAR-8 ovarian,6.31 µM
same,GI50,SF-268 CNS,2.37 µM
same,TGI,SF-268 CNS,8.47 µM
same,GI50,DU-145 prostate,1.9 µM
same,TGI,DU-145 prostate,4.81 µM
same,GI50,HOP-92 NSCLC,0.289 µM
same,TGI,HOP-92 NSCLC,2.78 µM
same,GI50,KM12 colon,1.32 µM
same,TGI,KM12 colon,2.79 µM
same,GI50,SNB-75 CNS,2.68 µM
same,TGI,SNB-75 CNS,10.2 µM
same,GI50,UACC-257 melanoma,1.88 µM
same,TGI,UACC-257 melanoma,4.46 µM
same,GI50,LOX IMVI melanoma,1.87 µM
same,TGI,LOX IMVI melanoma,4.9 µM
same,GI50,MDA-MB-231 breast,3.08 µM
same,TGI,MDA-MB-231 breast,26.2 µM
same,GI50,UACC-62 melanoma,1.61 µM
same,TGI,UACC-62 melanoma,3.57 µM
same,GI50,HL-60(TB) leukemia,2.01 µM
same,TGI,HL-60(TB) leukemia,5.01 µM
same,GI50,SK-OV-3 ovarian,3.01 µM
same,TGI,SK-OV-3 ovarian,8.35 µM
same,GI50,OVCAR-4 ovarian,3.13 µM
same,TGI,OVCAR-4 ovarian,21.6 µM
same,GI50,NCI-H226 lung,2.04 µM
same,TGI,NCI-H226 lung,4.3 µM
same,GI50,NCI/ADR-RES ovarian,1.89 µM
same,TGI,NCI/ADR-RES ovarian,6.92 µM
same,GI50,SF-539 CNS,1.87 µM
same,TGI,SF-539 CNS,4.5 µM
same,GI50,IGROV1 ovarian,1.89 µM
same,TGI,IGROV1 ovarian,3.73 µM
same,GI50,MALME-3M melanoma,3.65 µM
same,TGI,MALME-3M melanoma,21.7 µM
same,GI50,A498 renal,0.987 µM
same,TGI,A498 renal,> 100 µM
same,GI50,HOP-62 NSCLC,2.88 µM
same,TGI,HOP-62 NSCLC,6.75 µM
same,GI50,NCI-H522 lung,1.1 µM
same,TGI,NCI-H522 lung,2.38 µM
same,GI50,BT-549 breast,1.86 µM
same,TGI,BT-549 breast,5.55 µM
same,GI50,MOLT-4 leukemia,1.77 µM
same,TGI,MOLT-4 leukemia,4.39 µM
same,GI50,ACHN renal,2.09 µM
same,TGI,ACHN renal,5.09 µM
same,GI50,SF-295 CNS,2.24 µM
same,TGI,SF-295 CNS,> 100 µM
same,GI50,NCI-H460 lung,1.42 µM
same,TGI,NCI-H460 lung,2.84 µM
same,GI50,MDA-MB-435,2.49 µM
same,TGI,MDA-MB-435,9.52 µM
same,GI50,SK-MEL-5 melanoma,1.33 µM
same,TGI,SK-MEL-5 melanoma,2.72 µM
same,GI50,HCT-15 colon,1.6 µM
same,TGI,HCT-15 colon,5.31 µM
O=C(Nc1ccc([N+](=O)[O-])cc1)c1ccc([N+](=O)[O-])cc1,TGI,SNB-75 CNS,> 100 µM
same,TGI,SF-295 CNS,> 100 µM
